Entries after “also recorded” stand apart in the source; their conditions may differ.
What was measured:
[1] = tested on: adult rat ventricular myocytes; type: cell-based
[2] = rat, in vivo, iv
isolated rat heart = assay: Ex vivo cardiac electrophysiological recordings (Langendorff, MEA)
Procedure: Eleven-week-old Wistar-Han rats were first heparinized (heparin sodium, 0.5 U/g i.p.) and then euthanized by i.p. injection of 140 mg/kg pentobarbital (Euthasol®). Hearts were quickly excised and immersed in a cold modified Krebs-Henseleit solution (in mM): 116 NaCl, 5 KCl, 1.1 MgSO4, 7 H2O, 0.35 NaH2PO4, 27 NaHCO3, 10 glucose, and pH 7.4. The aorta was cannulated, and the hearts were perfused on a Langendorff system with warm (36.5–37.5°C) and oxygenated (95% O2/5% CO2) Krebs-Henseleit solution supplemented with 1.8 mM CaCl2, 1 mM lactate, and 0.2 mM pyruvate (control solution) at a constant flow rate of 12 mL/min. Once connected to the Langendorff perfusion system, hearts were perfused with control solution for 10 min to stabilize their activities. Electrical activity of the upper part of the right ventricle was assessed using a 64-electrode array (0.2-mm electrode diameter; 0.36-mm interelectrode distance) connected to an EMS64-USB-1002 amplifier. Single-lead ECG was acquired to monitor global cardiac electrical activity. Data were sampled at 10 kHz per channel and acquired by EMapRecord5 (Mappinglab, Oxford, UK). Data were obtained at baseline (2 min before compound perfusion) and during AaH-II* perfusion for 10 min at various concentrations. Data were analysed using EMapScope5 (Mappinglab, Oxford, UK). Activation times were determined as the point of maximal negative slope. All activation times were related to the timing of the first detected waveform and then used to draw activation maps. An average of three complexes was used for activation time and conduction velocity analyses, while interbeat interval was measured as the average of 10 consecutive intervals. The index of inhomogeneity was calculated as previously described.[23] Arrhythmias were quantified over a period of 2 min in control and after peptide perfusion.

[3] = tested on: human iPS-derived cardiomyocytes; assay: Automated patch-clamp of Na+ current in human iPS-derived cardiomyocytes; type: cell-based
Procedure: The control hiPSC cell line (ITXi002-A; IRX5-Wt[16]; RRID:CVCL_B5QD) was generated from primary dermal fibroblasts and previously characterized.[17–19] hiPSCs were maintained at 37°C, 5% CO2, 21% O2 in StemMacs PSC-Brew XF human medium (Miltenyi Biotec, #130-127-865) on culture plates coated with 0.05 mg/mL Matrigel hESC-Qualified Matrix (Corning, #354277) in DMEM F12 (Gibco, #11320033). At 75% confluency, the cells were passaged using the Gentle Cell Dissociation Reagent (StemCell Technologies, #07174).
We generated right ventricular-like cardioids on 96-well low-attachment plates using the Schmidt et al. (2023) protocol.[20] At D15.5, cardioids were pooled, dissociated, and replated as a monolayer in MW12 plates (Falcon, #353047) coated with Matrigel (Corning, #354277) for automated patch-clamp, and as single cells in 35-mm Petri dishes (NUNC #055055) coated with Matrigel for manual patch-clamp. Immediately before patch-clamp recording, cardiomyocytes were single-cell dissociated using Accutase (Sigma, #A6964).
For human iPSC-derived cardiomyocytes recordings, cells were resuspended at 300 000 cells/mL in a solution composed of 50% culture media and 50% extracellular buffer containing (in mM) 140 NaCl, 4 KCl, 2 CaCl2, 1 MgCl2, 5 glucose, and 10 HEPES (pH 7.4, osmolarity 298 mOsm) supplemented with 5 µM nifedipine. Single-hole, low-resistance chips (3–5 MΩ) were used. The intracellular solution contained (in mM) 10 KCl, 110 KF, 10 NaCl, 1 MgCl2, 1 CaCl2, 10 Ethylene Glycol Tetra-acetic Acid (EGTA), and 10 HEPES (pH 7.2, osmolarity 280 mOsm). Currents were recorded and analysed as previously described for stable cell lines.

[4] = tested on: adult rat ventricular cardiomyocytes; assay: Calcium imaging (SCR events) in isolated rat cardiomyocytes; type: cell-based
Procedure: Eleven-week-old Wistar Han rats were euthanized by intraperitoneal (i.p.) injection of a lethal dose of pentobarbital (140 mg/kg, Euthasol®). Subsequently, the hearts were quickly excised and rinsed in cold calcium-free Tyrode solution with the following composition (in mM): 118 NaCl, 4.17 KCl, 1.2 MgSO4, 1.2 KH2PO4, 21 NaHCO3, 11 glucose, and 5 taurine, at pH 7.4. The aorta was promptly cannulated, and the hearts were perfused in a retrograde fashion with warm (37–38°C) Tyrode containing 1.25 mM CaCl2 to flush the coronary arteries of blood and then with a Tyrode solution supplemented with 1 mg/mL collagenase type 2 (Worthington Biochemical Corp, Lakewood, NJ) and 0.2 U.mL^−1 protease type XIV (Sigma, Poole, UK) during 15–20 min. Once enzymatic digestion is completed, ventricles were shredded into small pieces with surgical scissors in 0.5 mM Ca^2+ Tyrode solution, filtered through a 200-µm mesh, and then resuspended in 1 mM Ca^2+ Tyrode solution for 1 h at RT. Isolated cardiomyocytes were incubated in the dark with Fura-2-AM calcium probe (2 µM in 20% v/v DMSO; Life Technologies) for 15 min. Cardiomyocytes were then loaded onto the IonOptix system (IonOptix Corporation, U.S.A.) and perfused with warm (37°C) Tyrode solution. Cardiomyocytes were stimulated at 0.5 Hz using a MyoPacer field stimulator (20 V, 7 ms) to achieve steady state. Fura-2 fluorescence (F) at 510 nm was used to measure cytoplasmic Ca^2+ concentration variation by exciting with UV light at 340 and 380 nm. Cells were paced for 1 to 2 min, ensuring stabilization of the signals, and the effects of the peptides were measured at the end of a 5 min application time. 30-s-long periods were used as the unit duration (representing 15 Ca^2+ transients) during control and after the perfusion of the compound to count the number of arrhythmogenic transients.

hNav1.6 = hNav1.6 (Homo sapiens, UniProt Q9UQD0); type: cell-based
Wistar-Han rats = type: in vivo, rat; details: rat, in vivo, iv

Chain of hNav1.6 (Q9UQD0 other isoform, or with tags, fused parts or gaps): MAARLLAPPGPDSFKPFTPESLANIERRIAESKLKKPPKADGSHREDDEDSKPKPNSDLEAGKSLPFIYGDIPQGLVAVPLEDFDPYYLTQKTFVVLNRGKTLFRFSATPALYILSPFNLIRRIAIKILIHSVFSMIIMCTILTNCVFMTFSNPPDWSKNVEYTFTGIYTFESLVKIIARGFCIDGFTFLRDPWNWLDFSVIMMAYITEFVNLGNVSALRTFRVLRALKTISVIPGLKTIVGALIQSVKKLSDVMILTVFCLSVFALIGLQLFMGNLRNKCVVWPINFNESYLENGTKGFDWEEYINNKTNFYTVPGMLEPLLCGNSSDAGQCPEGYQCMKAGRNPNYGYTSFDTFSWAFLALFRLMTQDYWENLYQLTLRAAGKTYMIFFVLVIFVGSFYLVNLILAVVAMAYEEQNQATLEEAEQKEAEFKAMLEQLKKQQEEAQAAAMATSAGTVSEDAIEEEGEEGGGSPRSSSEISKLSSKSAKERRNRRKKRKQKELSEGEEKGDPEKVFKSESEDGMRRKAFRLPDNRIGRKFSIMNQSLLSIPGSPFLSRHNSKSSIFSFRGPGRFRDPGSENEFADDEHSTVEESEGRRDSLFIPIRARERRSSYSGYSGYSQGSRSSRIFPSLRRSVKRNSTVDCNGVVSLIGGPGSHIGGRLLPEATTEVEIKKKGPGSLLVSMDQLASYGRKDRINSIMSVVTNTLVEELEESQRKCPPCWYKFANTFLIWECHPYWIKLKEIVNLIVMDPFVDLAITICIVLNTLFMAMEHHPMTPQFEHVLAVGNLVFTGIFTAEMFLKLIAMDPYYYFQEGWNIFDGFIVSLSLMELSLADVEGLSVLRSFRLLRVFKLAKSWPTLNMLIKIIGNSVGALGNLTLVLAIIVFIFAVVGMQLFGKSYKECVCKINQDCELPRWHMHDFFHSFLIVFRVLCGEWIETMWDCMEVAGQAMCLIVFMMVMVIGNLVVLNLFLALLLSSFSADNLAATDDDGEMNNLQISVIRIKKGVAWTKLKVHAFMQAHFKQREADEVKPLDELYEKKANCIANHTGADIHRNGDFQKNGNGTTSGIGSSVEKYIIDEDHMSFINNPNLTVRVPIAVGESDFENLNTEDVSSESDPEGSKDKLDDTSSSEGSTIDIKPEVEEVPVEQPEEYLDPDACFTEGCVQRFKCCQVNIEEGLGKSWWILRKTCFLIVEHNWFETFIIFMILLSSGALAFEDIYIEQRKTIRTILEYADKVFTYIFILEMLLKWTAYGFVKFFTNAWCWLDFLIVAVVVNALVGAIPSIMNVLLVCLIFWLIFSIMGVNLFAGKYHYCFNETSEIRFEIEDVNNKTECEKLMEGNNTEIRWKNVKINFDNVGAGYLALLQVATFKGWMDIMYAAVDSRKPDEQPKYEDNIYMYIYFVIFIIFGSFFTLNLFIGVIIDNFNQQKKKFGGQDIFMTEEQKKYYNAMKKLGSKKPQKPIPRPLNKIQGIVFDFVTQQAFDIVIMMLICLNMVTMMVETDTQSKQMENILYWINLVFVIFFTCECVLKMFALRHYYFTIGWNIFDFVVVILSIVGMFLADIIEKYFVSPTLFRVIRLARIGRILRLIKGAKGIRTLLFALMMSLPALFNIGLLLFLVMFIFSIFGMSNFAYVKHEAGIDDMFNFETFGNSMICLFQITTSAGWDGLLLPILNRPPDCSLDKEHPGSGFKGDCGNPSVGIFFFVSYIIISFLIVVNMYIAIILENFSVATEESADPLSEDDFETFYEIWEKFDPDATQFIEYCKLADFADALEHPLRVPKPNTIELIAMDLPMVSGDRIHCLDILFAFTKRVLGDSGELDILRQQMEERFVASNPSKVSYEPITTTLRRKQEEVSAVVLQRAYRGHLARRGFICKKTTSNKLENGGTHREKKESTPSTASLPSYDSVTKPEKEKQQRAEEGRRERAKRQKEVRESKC

NC1=N[C@H](O)[C@H]2[C@H]3O[C@]4(O)O[C@@H]([C@@H](O)[C@@]2(N1)[C@@H]4O)[C@]3(O)CO [TTX, tetrodotoxin]
block of AaH-II* responses [1]: blocked | circulating plasmatic concentration [2]: 403 ± 44 nM | interbeat interval (bradycardia) (isolated rat heart): small bradycardic effect | ventricular conduction velocity / activation time (isolated rat heart): unaffected; also recorded: does not affect ventricular conduction velocity | block of AaH-II*-triggered INaL [3]: entirely blocked; also recorded: fully blocked | calcium transient amplitude and time to peak [4]: reduce the amplitude and increase the time to peak of regular calcium transients moderately | cells presenting SCR events (SCR cells / cells) [4]: does not by itself trigger the appearance of SCR events | block of AaH-II*-modified hNav1.6 currents (hNav1.6): complete block of hNav1.6 currents | P wave (Wistar-Han rats): 16.3 ± 1.4 ms | PR (Wistar-Han rats): 48.5 ± 3.3 ms | QRS (Wistar-Han rats): 18.2 ± 0.7 ms | QTc (Wistar-Han rats): 45.9 ± 2.2 | RR (Wistar-Han rats): 194.7 ± 9.3 ms | RR interval (Wistar-Han rats): increases the RR interval progressively with increasing doses | T wave area (Wistar-Han rats): 1.1 ± 0.1 mV/ms | arrhythmic rats (rats / all rats) (Wistar-Han rats): clearly non-arrhythmic

— article PMC13598332, “Selective activation of tetrodotoxin-sensitive sodium channels by AaH-II drives arrhythmogenic late Na^+ current in the heart” (Europace, 2026)
